Source: US5776901A, “Polypeptide analogues having growth hormone releasing activity” (Administrators of the Tulane Educational Fund, priority 1992, dated 1998)
Values joined by “and” are separate entries in the source; they are usually repeats but may differ in a detail not shown here. Equal values may be shown once.

Experiments:
[1] = tested on: serum growth hormone (GH); experiment: In vivo GH release in pentobarbital anesthetized rats, i.v. injection; set-up: species or system rat; settings: sacrificed 10 min after injection, N = 6
Protocol: (§1) Immature female Sprague-Dawley rats were obtained from the Charles River Laboratories (Wilmington, Mass.). After arrival they were housed at 25° C. with a 14:10 hour light:dark cycle. Water and Purina rat chow were available ad libitum. Pups were kept with their mothers until 21 days of age.
(§2) Twenty-six day old rats, six rats per treatment group, were anesthetized interperitoneally with 50 mg/kg of pentobarbital 20 minutes prior to i.v. treatment with peptide. Normal saline with 0.1% gelatin was the vehicle for intravenous (i.v.) injections of the peptides. The anesthetized rats, weighing 55-65 grams, were injected i.v. with the quantity of growth hormone releasing compounds indicated in Table 3. Injection was made as a 0.1 mL solution into the jugular vein.
(§3) All animals were sacrificed by guillotine 10 minutes after the final test injection (see Table 3). Trunk blood for the determination of blood GH levels was collected following decapitation. After allowing the blood to clot, it was centrifuged and the serum was separated from the clot. Serum was kept frozen until the day of sampling for radioimmunoassay (RIA) determination of growth hormone levels according to the following procedure, as developed by the National Institute of Arthritis, Diabetes and Digestive and Kidney Diseases (NIADDK).
Reagents are generally added to the RIA analysis tubes at a single sitting, at refrigerator temperature (about 4° C.) in the following sequence:
(b) "cold" (i.e., non-radioactive) standard or unknown serum sample to be analyzed,
(c) radio-iodinated growth hormone antigen, and
(d) growth hormone antiserum.
Reagent addition is generally carried out so that there is achieved a final RIA tube dilution of about 1:30,000 (antiserum to total liquid volume; vol:vol).
(§4) The mixed reagents are then typically incubated at room temperature (about 25° C.) for about 24 hours prior to addition of a second antibody (e.g., goat or rabbit anti-monkey gamma globulin serum) which binds to and causes precipitation of the complexed growth hormone antiserum. Precipitated contents of the RIA tubes are then analyzed for the number of counts in a specified period of time in a gamma scintillation counter. A standard curve is prepared by plotting number of radioactive counts versus growth hormone (GH) level. GH levels of unknowns are then determined by reference to the standard curve.
(§5) Serum GH was measured by RIA with reagents provided by the National Hormone and Pituitary Program.
Serum levels in Table 3 are recorded in ng/mL in terms of the rat GH standard of 0.61 International Units/mg (IU/mg). Data is recorded as the mean +/- standard error of the mean (SEM). Statistical analysis was performed with Student's t-test. In Table 3 the results shown are the average of studies with six rats.
The procedure of Example 2 was repeated.

[2] = tested on: serum growth hormone (GH); experiment: In vivo GH release in rats, subcutaneous injection, sacrifice at +15 minutes; set-up: species or system rat; settings: Table 7, sacrifice +15 minutes, N = 6
Protocol: as §1, §2, §3, §4, §5
The general procedure of Example 2 was followed except the peptides were injected subcutaneously rather than intravenously and the sacrifice time was +15 minutes rather than +10 minutes.

[3] = Table 6, total dose 0.30 μg i.v.
[4] = Table 6, total dose 1.00 μg i.v.
[5] = Table 5, total dose 0.30 μg i.v.
[6] = Table 5, total dose 3.00 μg i.v.
[7] = Table 5, total dose 0.10 μg i.v.
[8] = Table 5, total dose 1.00 μg i.v.

## DAla-DμNal-Ala-Trp-LysNH2
[1]; [3]
  GH Released Serum GH: 187 ng/mL
[1]; [4]
  GH Released Serum GH: 257 ng/mL
[1]; Table 6, total dose 3.00 μg i.v.
  GH Released Serum GH: 198 ng/mL
[1]; Table 6, total dose 10.00 μg i.v.
  GH Released Serum GH: 193 ng/mL
[1]; Table 6, total dose 30.00 μg i.v.
  GH Released Serum GH: 236 ng/mL

## γABU-DβNal-Ala-Phe-DPhe-Lys-NH2
[2]; total dose 1.00 μg s.c.
  GH Released Serum GH + SEM: 1127 ± 110 ng/mL
[2]; total dose .03 μg s.c.
  GH Released Serum GH + SEM: 197 ± 31 ng/mL
[2]; total dose .10 μg s.c.
  GH Released Serum GH + SEM: 182 ± 20 ng/mL
[2]; total dose .30 μg s.c.
  GH Released Serum GH + SEM: 524 ± 116 ng/mL

## DAla-Tcc-Ala-Trp-DPhe-Lys-NH2
[1]; [5]
  GH Released Serum GH: 149 ng/mL
[1]; [6]
  GH Released Serum GH: 142 ng/mL

## Tip-Ala-DβNal-Ala-Trp-DPhe-Lys-NH2
[1]; [7]
  GH Released Serum GH: 168 ng/mL
[1]; [5]
  GH Released Serum GH: 167 ng/mL
[1]; [8]
  GH Released Serum GH: 152 ng/mL
[1]; [6]
  GH Released Serum GH: 272 ng/mL

## α,γABU-DβNal-Ala-Trp-DPhe-LysNH2
[1]; Table 6, total dose 0.03 μg i.v.
  GH Released Serum GH: 621 ng/mL
[1]; Table 6, total dose 0.10 μg i.v.
  GH Released Serum GH: 1230 ng/mL
[1]; [3]
  GH Released Serum GH: 2385 ng/mL
[1]; [4]
  GH Released Serum GH: 3011 ng/mL

## αγABU-DβNal-Ala-Phe-DPhe-Lys-NH2
[2]; total dose 1.00 μg s.c.
  GH Released Serum GH + SEM: 1441 ± 203 ng/mL
[2]; total dose .03 μg s.c.
  GH Released Serum GH + SEM: 192 ± 29 ng/mL
[2]; total dose .10 μg s.c.
  GH Released Serum GH + SEM: 288 ± 62 ng/mL
[2]; total dose .30 μg s.c.
  GH Released Serum GH + SEM: 461 ± 90 ng/mL

## 3Me-His-DβNal-Ala-Trp-DPhe-Lys-NH2
[1]; Table 5, total dose 0.03 μg i.v.
  GH Released Serum GH: 122 ng/mL and 134 ng/mL
[1]; [7]
  GH Released Serum GH: 185 ng/mL and 112 ng/mL and 159 ng/mL
[1]; [5]
  GH Released Serum GH: 101 ng/mL and 78 ng/mL
[1]; [8]
  GH Released Serum GH: 134 ng/mL
